Broadly, the EC50 is the concentration needed to bring the measured effect to its halfway point.

Bounds are passed on as bounds.

EC50 data for 22 compounds are collected here from patent US20230339886A1 (University of Florida Research Foundation, Incorporated, priority 2020, published 2023).

The target of the experiment is T1, REV-ERBα LBD (human; residues 281-614 Δ324-422) (Homo sapiens, UniProt P20393, DEL324-422).
T1 construct: 6×Histag-REV-ERBα LBD (human; residues 281-614 Δ324-422); made in house; host or cells: Escherichia coli
T1 sequence (P20393 with tags, fused parts or gaps DEL324-422): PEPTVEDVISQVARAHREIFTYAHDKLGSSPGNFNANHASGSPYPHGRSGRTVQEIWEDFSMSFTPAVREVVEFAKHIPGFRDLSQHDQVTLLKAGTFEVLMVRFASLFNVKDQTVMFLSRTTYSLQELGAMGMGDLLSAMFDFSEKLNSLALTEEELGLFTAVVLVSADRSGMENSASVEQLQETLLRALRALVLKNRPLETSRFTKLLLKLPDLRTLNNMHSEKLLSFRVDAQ
T1 sequence (Q9Y618 2335-2356 partner limits assumed): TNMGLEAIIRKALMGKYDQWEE
In words: TR-FRET corepressor interaction assay (REV-ERBα LBD, FITC-SMRT peptide). Format: biochemical. The following applies: Table 2, read-out: REVERBα agonism (EC50 class, FRET assay). In short, it runs like this: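 Compound serial dilutions (in DMSO, triplicate) incubated 2 h at 4 °C; Tb donor excited at 340 nm, emission read at 495 nm and FITC acceptor at 520 nm. TR-FRET ratio (520/495 nm) plotted against ligand concentration and fitted to a sigmoidal dose-response curve.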
Regarding `Cc1cccc(Cl)c1-c1ccc2c([C@H](NS(=O)(=O)C3CC3)C(F)(F)F)cn(CC(C)(C)C)c2c1` [Example 388, (S)—N-(1-(6-(2-chloro-6-methylphenyl)-1-neopentyl-1H-indol-3-yl)-2,2,2-trifluoroethyl)cyclopropanesulfonamide], the half-maximal effective concentration (EC50) is less than 500 nM.

With `CC(C)(C)Cn1cc([C@H](NS(=O)(=O)C2CC2)C(F)(F)F)c2ccc(-c3c(C#N)cccc3C(F)(F)F)cc21` [Example 389, (S)—N-(1-(6-(2-cyano-6-(trifluoromethyl)phenyl)-1-neopentyl-1H-indol-3-yl)-2,2,2-trifluoroethyl)cyclopropanesulfonamide], the EC50 is less than 500 nM. For the compound `Cc1cccc(C#N)c1-c1ccc2c([C@H](NS(=O)(=O)C3CC3)C(F)(F)F)cn(CC(C)(C)C)c2c1` [Example 390, (S)—N-(1-(6-(2-cyano-6-methylphenyl)-1-neopentyl-1H-indol-3-yl)-2,2,2-trifluoroethyl)cyclopropanesulfonamide], the concentration for a half-maximal effect (EC50) is less than 500 nM. The same measure for `COC(C)(C)Cn1cc([C@H](NS(=O)(=O)C2CCC2)C(F)(F)F)c2cc(F)c(-c3ccccc3C(F)(F)F)cc21` [Example 391, N-[(1S)-2,2,2-trifluoro-1-[5-fluoro-1-(2-methoxy-2-methyl-propyl)-6-[2-(trifluoromethyl)phenyl]indol-3-yl]ethyl]cyclobutanesulfonamide]: less than 500 nM. For `N#CC1(Cn2cc([C@H](NS(=O)(=O)C3CCC3)C(F)(F)F)c3cc(F)c(-c4ccccc4C(F)(F)F)cc32)CC1` [Example 392, [(1S)-1-[1-[(1-cyanocyclopropyl)methyl]-5-fluoro-6-[2-(trifluoromethyl)phenyl]indol-3-yl]-2,2,2-trifluoro-ethyl]cyclobutanesulfonamide] the value was less than 500 nM; for `CC(C)(C)Cn1cc(CCNS(=O)(=O)C2CC2)c2ccc(-c3cccc(F)c3C(F)(F)F)cc21` [Example 393, N-(2-(6-(3-fluoro-2-(trifluoromethyl)phenyl)-1-neopentyl-1H-indol-3-yl)ethyl)cyclopropanesulfonamide], 500 to 3000 nM; for `CC(C)(C)Cn1cc(CCNS(=O)(=O)C2CC2)c2ccc(-c3ccc(Cl)cc3C(F)(F)F)cc21` [Example 394, N-(2-(6-(4-chloro-2-(trifluoromethyl)phenyl)-1-neopentyl-1H-indol-3-yl)ethyl)cyclopropanesulfonamide], less than 500 nM.

`CC(C)(C)Cn1cc(CCNS(=O)(=O)C2CC2)c2ccc(-c3ccc(F)cc3C(F)(F)F)cc21` [Example 395, N-(2-(6-(4-fluoro-2-(trifluoromethyl)phenyl)-1-neopentyl-1H-indol-3-yl)ethyl)cyclopropanesulfonamide]: the EC50 was less than 500 nM. For the compound `CC(C)(C)Cn1cc(CCNS(=O)(=O)C2CC2)c2ccc(-c3ccc(C(F)(F)F)cc3Cl)cc21` [Example 396, N-(2-(6-(2-chloro-4-(trifluoromethyl)phenyl)-1-neopentyl-1H-indol-3-yl)ethyl)cyclopropanesulfonamide], the half-maximal effective concentration (EC50) is less than 500 nM.

For `CC(C)(C)Cn1cc(CCNS(=O)(=O)C2CC2)c2ccc(-c3ccc(Cl)cc3Cl)cc21` [Example 397, N-(2-(6-(2,4-dichlorophenyl)-1-neopentyl-1H-indol-3-yl)ethyl)cyclopropanesulfonamide], the concentration giving a half-maximal response (EC50) was less than 500 nM. Turning to `Cc1ccc(-c2ccc3c(CCNS(=O)(=O)C4CC4)cn(CC(C)(C)C)c3c2)c(C(F)(F)F)c1` [Example 398, N-(2-(6-(4-methyl-2-(trifluoromethyl)phenyl)-1-neopentyl-1H-indol-3-yl)ethyl)cyclopropanesulfonamide], the EC50 was less than 500 nM. The same measure for `CC(C)(C)Cn1cc(CCNS(=O)(=O)C2CC2)c2ccc(-c3cccc(C(F)(F)F)c3C#N)cc21` [Example 399, N-(2-(6-(2-cyano-3-(trifluoromethyl)phenyl)-1-neopentyl-1H-indol-3-yl)ethyl)cyclopropanesulfonamide]: greater than 3000 nM; for `CC(C)(C)Cn1cc(CCNS(=O)(=O)C2CC2)c2ccc(-c3ccc(C(F)(F)F)cc3C#N)cc21` [Example 400, N-(2-(6-(2-cyano-4-(trifluoromethyl)phenyl)-1-neopentyl-1H-indol-3-yl)ethyl)cyclopropanesulfonamide]: less than 500 nM; for `CC(C)(C)Cc1cn(CCNS(=O)(=O)C2CC2)c2ccc(-c3ccc(Cl)cc3C#N)cc12` [Example 401, N-(2-(5-(4-chloro-2-cyanophenyl)-3-neopentyl-1H-indol-1-yl)ethyl)cyclopropanesulfonamide]: less than 500 nM. For the compound `Cc1ccc(-c2ccc3c(c2)c(CC(C)(C)C)cn3CCNS(=O)(=O)C2CC2)c(C(F)(F)F)c1` [Example 402, N-(2-(5-(4-methyl-2-(trifluoromethyl)phenyl)-3-neopentyl-1H-indol-1-yl)ethyl)cyclopropanesulfonamide], the EC50 was less than 500 nM.

Regarding `CC(CO)(CCl)Cn1cc([C@H](NS(=O)(=O)C2CC2)C(F)(F)F)c2cc(F)c(-c3ccccc3C(F)(F)F)cc21` (stereo partly drawn) [Example 404, N-[(1S)-1-[1-[2-(chloromethyl)-3-hydroxy-2-methyl-propyl]-5-fluoro-6-[2-(trifluoromethyl)phenyl]indol-3-yl]-2,2,2-trifluoro-ethyl]cyclopropanesulfonamide], the concentration giving a half-maximal response (EC50) fell in the range of 500 to 3000 nM. Consider `CC(C)(C)Cn1cc(CC2(NS(=O)(=O)C3CC3)CC2)c2ccc(-c3ccccc3C(F)(F)F)cc21` [Example 406, N-(1-((1-neopentyl-6-(2-(trifluoromethyl)phenyl)-1H-indol-3-yl)methyl)cyclopropyl)cyclopropanesulfonamide], for which the EC50 was greater than 3000 nM. As to `CC(C)Cn1cc(C(CS(C)(=O)=O)C(F)(F)F)c2ccc(-c3ccccc3C(F)(F)F)cc21` (stereo not shown) [Example 407, 1-isobutyl-3-(1,1,1-trifluoro-3-(methylsulfonyl)propan-2-yl)-6-(2-(trifluoromethyl)phenyl)-1H-indole], the EC50 was greater than 3000 nM.

Regarding `Cc1ccc(-c2ccc3c(CCS(=O)(=O)C4CC4)cn(CC(C)(C)C)c3c2)c(C(F)(F)F)c1` [Example 408, 3-(2-(cyclopropylsulfonyl)ethyl)-6-(4-methyl-2-(trifluoromethyl)phenyl)-1-neopentyl-1H-indole], the concentration giving a half-maximal response (EC50) is less than 500 nM. As to `CC(C)Cn1cc([C@H](NS(=O)(=O)C2CC2)C(F)(F)F)c2ccc(-c3ccccc3C(F)(F)F)cc21` [Example 410, (S)—N-(2,2,2-trifluoro-1-(1-isobutyl-6-(2-(trifluoromethyl)phenyl)-1H-indol-3-yl)ethyl)cyclopropanesulfonamide], the EC50 is less than 500 nM. Consider `CC(C)(C)Cn1cc([C@H](NS(=O)(=O)C2CCC2)C(F)(F)F)c2ccc(-c3c(F)cccc3Cl)cc21` [Example 411, (S)—N-(1-(6-(2-chloro-6-fluorophenyl)-1-neopentyl-1H-indol-3-yl)-2,2,2-trifluoroethyl)cyclobutanesulfonamide], for which the EC50 was less than 500 nM. For `COC(C)(C)Cn1cc([C@H](NS(=O)(=O)C2CCC2)C(F)(F)F)c2ccc(-c3ccccc3C(F)(F)F)nc21` [Example 413, (S)—N-(2,2,2-trifluoro-1-(1-(2-methoxy-2-methylpropyl)-6-(2-(trifluoromethyl)phenyl)-1H-pyrrolo[2,3-b]pyridin-3-yl)ethyl)cyclobutanesulfonamide] the value was less than 500 nM.
